Data published in patent US7351732B2, “Cycloalkanedione derivatives, method for the production thereof and their pharmacological applications” (Schwarz Pharma S.L., priority 2002, dated 2008).
Structures can show the parent of a compound that is named as a salt. Where two headings read alike, the source gives them in different places.

Key:
5-HT3 receptors = target: T1, 5-HT3 receptors (Rattus norvegicus, UniProt P35563); test: Radioligand displacement, 5-HT3 receptors, [3H]LY 278584; assay type: binding; conditions: [3H]LY 278584, rat cerebral cortex; read-out: Ki ± E.E. 5-HT3
T1 construct: (c) 5-HT3 receptors, [^3H]LY 278584, rat cerebral cortex; from tissue; host or cells: rat cerebral cortex
T1 sequence (P35563 24-483): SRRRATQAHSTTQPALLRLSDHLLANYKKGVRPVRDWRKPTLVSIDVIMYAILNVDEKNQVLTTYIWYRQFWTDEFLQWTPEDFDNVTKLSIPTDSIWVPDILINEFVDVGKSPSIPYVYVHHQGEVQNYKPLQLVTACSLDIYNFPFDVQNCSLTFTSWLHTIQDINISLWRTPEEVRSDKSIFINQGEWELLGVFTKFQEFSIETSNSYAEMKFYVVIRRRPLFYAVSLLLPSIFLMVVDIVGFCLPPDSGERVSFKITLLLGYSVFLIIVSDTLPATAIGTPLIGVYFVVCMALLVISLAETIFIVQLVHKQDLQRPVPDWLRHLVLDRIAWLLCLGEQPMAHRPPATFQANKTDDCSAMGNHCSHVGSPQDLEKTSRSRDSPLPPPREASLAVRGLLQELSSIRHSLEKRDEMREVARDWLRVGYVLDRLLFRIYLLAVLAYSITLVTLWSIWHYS

5-HT4 receptors = target: T2, 5-HT4 receptors (Rattus norvegicus, UniProt Q62758); test: Radioligand displacement, 5-HT4 receptors, [3H]GR 113808; assay type: binding; conditions: [3H]GR 113808, rat striatum; read-out: Ki ± E.E. 5-HT4
T2 construct: (d) 5-HT4 receptors, [^3H]GR 113808, rat striatum; from tissue; host or cells: rat striatum

α1 receptors = test: Radioligand displacement, α1 receptors, [3H]prazosin; assay type: binding; conditions: rat cerebral cortex, read-out: Ki ± E.E. α1
5-HT1A = target: T3, 5-HT1A (Rattus norvegicus, UniProt P19327); test: Radioligand displacement, 5-HT1A receptors, [3H]-8-OH-DPAT; assay type: binding; set-up: (a) 5-HT1A receptors, [^3H]-8-OH-DPAT, rat cerebral cortex; from tissue; host or cells: rat cerebral cortex; conditions: rat cerebral cortex, read-out: Ki ± E.E. 5-HT1A
T3 sequence (P19327 1-422): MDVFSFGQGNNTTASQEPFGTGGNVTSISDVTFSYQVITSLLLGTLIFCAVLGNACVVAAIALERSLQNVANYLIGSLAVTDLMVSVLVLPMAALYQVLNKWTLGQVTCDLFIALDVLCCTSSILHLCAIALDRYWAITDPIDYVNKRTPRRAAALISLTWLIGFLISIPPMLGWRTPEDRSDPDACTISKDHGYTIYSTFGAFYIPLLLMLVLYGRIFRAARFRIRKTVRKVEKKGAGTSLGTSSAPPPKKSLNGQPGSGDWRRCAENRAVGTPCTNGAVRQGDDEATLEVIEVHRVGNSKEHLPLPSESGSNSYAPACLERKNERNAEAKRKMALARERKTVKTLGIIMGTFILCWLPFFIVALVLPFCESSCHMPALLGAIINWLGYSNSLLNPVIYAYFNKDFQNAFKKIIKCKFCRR

5-HT2A receptors = target: T4, 5-HT2A receptors (Rattus norvegicus, UniProt P14842); test: Radioligand displacement, 5-HT2A receptors, [3H]ketanserin; assay type: binding; conditions: rat cerebral cortex, read-out: Ki ± E.E. 5-HT2A
T4 construct: (b) 5-HT2A receptors, [^3H]ketanserin, rat cerebral cortex; from tissue; host or cells: rat cerebral cortex

5-HT7 receptors = target: T5, 5-HT7 receptors (Rattus norvegicus, UniProt P32305); test: Radioligand displacement, 5-HT7 receptors, [3H]-5-CT; assay type: binding; conditions: read-out: Ki ± E.E. 5-HT7
T5 construct: (e) 5-HT7 receptors, [^3H]-5-CT, rat hypothalamus; from tissue; host or cells: rat hypothalamus

D2 receptors = target: T6, D2 receptors (Rattus norvegicus, UniProt P61169); test: Radioligand displacement, D2 receptors, [3H]spiperone; assay type: binding; conditions: rat striatum, read-out: Ki ± E.E. D2
T6 construct: (g) D2 receptors, [^3H]spiperone, rat striatum; from tissue; host or cells: rat striatum
T6 sequence (P61169 whole entry): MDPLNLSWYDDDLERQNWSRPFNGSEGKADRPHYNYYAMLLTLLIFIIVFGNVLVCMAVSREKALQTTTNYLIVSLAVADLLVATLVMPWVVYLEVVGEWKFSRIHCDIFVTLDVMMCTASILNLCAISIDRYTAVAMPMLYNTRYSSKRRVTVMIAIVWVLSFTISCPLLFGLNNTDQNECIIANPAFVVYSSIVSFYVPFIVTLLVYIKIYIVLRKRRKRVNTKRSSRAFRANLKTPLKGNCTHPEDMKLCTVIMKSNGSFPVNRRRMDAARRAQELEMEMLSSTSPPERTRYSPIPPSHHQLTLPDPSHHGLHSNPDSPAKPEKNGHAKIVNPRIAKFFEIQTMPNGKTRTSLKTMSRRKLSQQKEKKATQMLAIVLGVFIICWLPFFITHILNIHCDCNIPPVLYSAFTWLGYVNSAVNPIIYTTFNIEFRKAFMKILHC

T2 sequence (Q62758 whole entry): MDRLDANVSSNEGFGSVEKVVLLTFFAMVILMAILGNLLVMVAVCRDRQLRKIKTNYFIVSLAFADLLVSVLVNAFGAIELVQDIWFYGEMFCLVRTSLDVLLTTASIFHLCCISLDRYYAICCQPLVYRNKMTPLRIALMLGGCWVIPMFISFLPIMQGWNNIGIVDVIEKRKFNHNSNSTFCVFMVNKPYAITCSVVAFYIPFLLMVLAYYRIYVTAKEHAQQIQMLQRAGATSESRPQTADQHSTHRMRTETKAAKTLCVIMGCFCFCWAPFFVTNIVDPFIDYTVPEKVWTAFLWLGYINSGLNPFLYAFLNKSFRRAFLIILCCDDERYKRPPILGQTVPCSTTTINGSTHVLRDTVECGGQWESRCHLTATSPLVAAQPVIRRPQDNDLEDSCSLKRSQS
T5 sequence (P32305 whole entry): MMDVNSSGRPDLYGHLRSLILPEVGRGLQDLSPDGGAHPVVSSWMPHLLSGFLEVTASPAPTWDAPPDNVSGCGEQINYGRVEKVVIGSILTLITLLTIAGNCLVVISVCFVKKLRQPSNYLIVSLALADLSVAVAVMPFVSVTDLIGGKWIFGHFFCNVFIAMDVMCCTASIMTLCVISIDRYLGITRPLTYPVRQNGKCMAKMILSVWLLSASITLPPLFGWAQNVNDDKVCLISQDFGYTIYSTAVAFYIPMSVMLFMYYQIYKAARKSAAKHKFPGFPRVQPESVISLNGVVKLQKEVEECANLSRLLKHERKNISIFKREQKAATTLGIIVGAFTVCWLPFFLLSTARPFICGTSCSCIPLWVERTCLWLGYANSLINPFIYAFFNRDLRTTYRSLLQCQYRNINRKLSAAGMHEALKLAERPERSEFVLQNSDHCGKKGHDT
T4 sequence (P14842 whole entry): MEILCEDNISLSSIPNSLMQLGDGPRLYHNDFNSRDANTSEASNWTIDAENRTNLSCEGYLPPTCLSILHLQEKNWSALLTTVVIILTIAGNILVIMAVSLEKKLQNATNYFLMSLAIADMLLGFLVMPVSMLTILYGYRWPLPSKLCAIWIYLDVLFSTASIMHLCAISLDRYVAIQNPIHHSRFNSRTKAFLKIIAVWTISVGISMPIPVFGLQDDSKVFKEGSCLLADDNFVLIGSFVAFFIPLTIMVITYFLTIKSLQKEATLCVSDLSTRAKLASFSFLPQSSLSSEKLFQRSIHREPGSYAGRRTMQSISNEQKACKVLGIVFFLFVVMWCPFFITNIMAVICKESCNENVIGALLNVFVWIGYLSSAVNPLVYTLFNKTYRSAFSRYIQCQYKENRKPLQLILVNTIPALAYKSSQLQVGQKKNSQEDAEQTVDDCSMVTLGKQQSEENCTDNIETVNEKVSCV

melting point [°C] | Ki (α1 receptors) [nM] | Ki (5-HT1A) [nM] | Compound | other results
128 to 129 |  |  | O=C1CSC(=O)N1CCCCNCCc1cccc2ccccc12 (as salt: hydrochloride) [Compound 10, 3-[4-[2-(Naphth-1-yl)ethylamine]butyl]-2,4-dioxothiazolidin] | 
 |  |  | CN(C)CCCSc1ccccc1NC(=O)/C=C/c1ccccc1 [Cinanserine, reference compound] | Ki (5-HT2A receptors): 2.6 ± 0.4 nM
149 to 151 |  |  | O=C1CSC(=O)N1CCCCNCCOc1cccc2ccccc12 (as salt: hydrochloride) [Compound 15, 3-[4-[2-(Naphth-1-oxi)ethylamine]butyl]-2,4-dioxothiazolidin] | 
 |  |  | CCCN(CCC)C1CCc2cccc(O)c2C1 (stereo not shown) [Compound 8-OH-DPAT, 8-OH-DPAT, reference compound] | Ki (5-HT7 receptors): 83.8 nM
95 to 97 |  |  | O=C1C2CCCN2C(=O)N1CCCCNCCc1cccc2ccccc12 (stereo not shown) (as salt: hydrochloride) [Compound 9, 2-[4-[2-(Naphth-1-yl)ethylamine]butyl]-1,3-dioxoperhydropyrrolo[1,2-c]imidazol] | 
 | 49.6 ± 2.9 |  | O=C1C2CCCN2C(=O)N1CCCCNCc1cccc2ccccc12 (stereo not shown) [Compound 7, 2-[4-[(Naphth-1-yl)methylamine]butyl]-1,3-dioxoperhydropyrrolo[1,2-c]imidazol] | Ki (5-HT4 receptors): > 10 µM; Ki (5-HT2A receptors): > 1000 nM; Ki (5-HT7 receptors; [3H]-5-CT, rat hypothalamus): > 10000 nM; Ki (D2 receptors): > 10 µM
 |  | 51.01 ± 0.47 | O=C1C2CCCN2C(=O)N1CCCCNCc1ccc2ccccc2c1 (stereo not shown) [Compound 8, 2-[4-[(Naphth-2-yl)methylamine]butyl]-1,3-dioxoperhydropyrrolo[1,2-c]imidazol] | 
 |  | 5.5 ± 0.4 | O=C1CSC(=O)N1CCCCCNCC1CCc2ccccc2O1 (racemic) [Compound 5, (±)-3-[5-[(Chroman-2-yl)methylamine]pentyl]-2,4-dioxothiazolidin] | 
 | > 1000 | 27.9 ± 3.1 | O=C1C2CCCN2C(=O)N1CCCCNCCc1cccc2ccccc12 (stereo not shown) [Compound 9, 2-[4-[2-(Naphth-1-yl)ethylamine]butyl]-1,3-dioxoperhydropyrrolo[1,2-c]imidazol] | Ki (5-HT4 receptors): > 10 µM; Ki (5-HT2A receptors): > 10000 nM; Ki (D2 receptors): > 10 µM
 | 99 ± 14 | 43.2 ± 4.5 | O=C1C2CCCN2C(=O)N1CCCCNCCc1ccc2ccccc2c1 (stereo not shown) [Compound 11, 2-[4-[2-(Naphth-2-yl)ethylamine]butyl]-1,3-dioxoperhydropyrrolo[1,2-c]imidazol] | Ki (5-HT3 receptors): > 10 µM; Ki (5-HT4 receptors): 0.594 ± 0.0437 µM; Ki (5-HT2A receptors): 157.3 ± 0.65 nM; Ki (5-HT7 receptors; [3H]-5-CT, rat hypothalamus): 74 ± 7.3 nM
 |  |  | COc1cc(COc2cc(N)c(Cl)cc2C(=O)CCC2CCN(CCNS(C)(=O)=O)CC2)cc(OC)c1 [RS-39604, reference compound] | Ki (5-HT4 receptors): 0.0039 ± 0.0002 µM
 | 6.1 ± 0.1 |  | Cc1ccc(N(CC2=NCCN2)c2cccc(O)c2)cc1 [Phentolamine, reference compound] | 
 |  |  | NCCc1c[nH]c2ccc(C(N)=O)cc12 [Compound 5-CT, 5-CT, reference compound] | Ki (5-HT7 receptors; [3H]-5-CT, rat hypothalamus): 1.8 ± 0.6 nM
150 to 153 |  |  | O=C1C2CCCN2C(=O)N1CCCCNCc1cccc2ccccc12 (stereo not shown) (as salt: hydrochloride) [Compound 7, 2-[4-[(Naphth-1-yl)methylamine]butyl]-1,3-dioxoperhydropyrrolo[1,2-c]imidazol] | 
130 to 132 |  |  | O=C1C2CCCN2C(=O)N1CCCCNCCc1ccc2ccccc2c1 (stereo not shown) (as salt: hydrochloride) [Compound 11, 2-[4-[2-(Naphth-2-yl)ethylamine]butyl]-1,3-dioxoperhydropyrrolo[1,2-c]imidazol] | 
142 to 144 |  |  | O=C1C2CSCN2C(=O)N1CCCCNCC1CCc2ccccc2O1 (racemic) (as salt: hydrochloride) [Compound 3, (±)-2-[4-[(Chroman-2-yl)methylamine]butyl]-1,3-dioxoperhydroimidazo[1,5-c]-thiazol] | 
125 to 127 |  |  | O=C1C2CCCN2C(=O)N1CCCCNCc1ccc2ccccc2c1 (stereo not shown) (as salt: hydrochloride) [Compound 8, 2-[4-[(Naphth-2-yl)methylamine]butyl]-1,3-dioxoperhydropyrrolo[1,2-c]imidazol] | 
160 to 162 |  |  | COc1ccccc1CCNCCCCN1C(=O)C2CCCN2C1=O (stereo not shown) (as salt: hydrochloride) [Compound 18, 2-[4-[2-(o-Methoxyphenyl)ethylamine]butyl]-1,3-dioxoperhydropyrrolo[1,2-c]imidazol] | 
 | 54.7 ± 1.8 | 4.5 ± 0.2 | O=C1CSC(=O)N1CCCCNCCOc1cccc2ccccc12 [Compound 15, 3-[4-[2-(Naphth-1-oxi)ethylamine]butyl]-2,4-dioxothiazolidin] | Ki (5-HT3 receptors): > 10 µM; Ki (5-HT2A receptors): 38.5 ± 7.7 nM; Ki (5-HT7 receptors; [3H]-5-CT, rat hypothalamus): 19.9 ± 0.8 nM; Ki (D2 receptors): > 1 µM
 | > 10000 | > 10000 | COc1ccccc1CNCCCCN1C(=O)C2CCCN2C1=O (stereo not shown) [Compound 17, 2-[4-[(o-Methoxyphenyl)methylamine]butyl]-1,3-dioxoperhydropyrrolo[1,2-c]imidazol] | 
163 to 164 |  |  | O=C1C2CCCN2C(=O)N1CCCCNCCOc1cccc2ccccc12 (stereo not shown) (as salt: hydrochloride) [Compound 14, 2-[4-[2-(Naphth-1-oxi)ethylamine]butyl]-1,3-dioxoperhydropyrrolo[1,2-c]imidazol] | 
 | > 1000 | 868 ± 23.1 | COc1ccccc1CCNCCCCN1C(=O)C2CCCN2C1=O (stereo not shown) [Compound 18, 2-[4-[2-(o-Methoxyphenyl)ethylamine]butyl]-1,3-dioxoperhydropyrrolo[1,2-c]imidazol] | Ki (5-HT4 receptors): > 10 µM; Ki (5-HT2A receptors): > 10000 nM; Ki (D2 receptors): > 10 µM
175 to 177 |  |  | O=C1CSC(=O)N1CCCCCCNCC1CCc2ccccc2O1 (racemic) (as salt: hydrochloride) [Compound 6, (±)-3-[6-[(Chroman-2-yl)methylamine]hexyl]-2,4-dioxothiazolidin] | 
 |  | 1.3 ± 0.2 | O=C1CSC(=O)N1CCCCCCNCC1CCc2ccccc2O1 (racemic) [Compound 6, (±)-3-[6-[(Chroman-2-yl)methylamine]hexyl]-2,4-dioxothiazolidin] | 

Compound | melting point [°C] | Ki (α1 receptors) [nM] | Ki (5-HT1A) [nM] | other results
COc1ccccc1CCCCNCCCCN1C(=O)C2CCCN2C1=O (stereo not shown) [Compound 20, 2-[4-[4-(o-Methoxyphenyl)butylamine]butyl]-1,3-dioxoperhydropyrrolo[1,2-c]imidazol] |  | > 1000 | 138 ± 26.3 | Ki (5-HT3 receptors): > 1 µM; Ki (5-HT4 receptors): > 10 µM; Ki (5-HT2A receptors): > 10000 nM; Ki (5-HT7 receptors; [3H]-5-CT, rat hypothalamus): > 10000 nM; Ki (D2 receptors): > 10 µM
O=C1C2CCCN2C(=O)N1CCCCNCc1nc2ccccc2[nH]1 (stereo not shown) [Compound 16, 2-[4-[(Benzimidazol-2-yl)methylamine]butyl]-1,3-dioxoperhydropyrrolo[1,2-c]imidazol] |  | > 1000 | > 10000 | Ki (5-HT3 receptors): > 1 µM; Ki (5-HT4 receptors): > 10 µM; Ki (5-HT2A receptors): > 10000 nM; Ki (5-HT7 receptors; [3H]-5-CT, rat hypothalamus): > 10000 nM; Ki (D2 receptors): > 10 µM
O=C1C2CCCN2C(=O)N1CCCCNCc1nc2ccccc2[nH]1 (stereo not shown) (as salt: hydrochloride) [Compound 16, 2-[4-[(Benzimidazol-2-yl)methylamine]butyl]-1,3-dioxoperhydropyrrolo[1,2-c]imidazol] | 208 to 210 |  |  | 
O=C1CSC(=O)N1CCCCNCCOc1ccccc1 (as salt: hydrochloride) [Compound 13, 3-[4-[2-(Phenoxy)ethylamine]butyl]-2,4-dioxothiazolidin] | 173 to 174 |  |  | 
O=C1C2SCCN2C(=O)N1CCCCNCC1CCc2ccccc2O1 (racemic) (as salt: hydrochloride) [Compound 2, (±)-2-[4-[(Chroman-2-yl)methylamine]butyl]-1,3-dioxoperhydroimidazo[1,5-b]thiazol] | 149 to 151 |  |  | 
